Patent publication US20200239530A1, “COMPOUNDS AND METHODS OF MODULATING PROTEIN DEGRADATION” (Vividion Therapeutics, Inc., priority 2017, published 2020)
Each block holds one compound with its values, some of them ahead of it.

Key:
Format in all cases: binding
[1] = target: T1, Q8NHG8 (Homo sapiens, UniProt Q8NHG8); assay: Cysteine liganding, probe competition (Table 2B); conditions: one line per cysteine site
T1 construct: 200 μL of lysate containing 5 mg/ml proteome was treated with 2 μL of 100× compound stock; endogenous in cells
Source text: (§1) The following 96-well sample prep protocol was used for sample preparation.

[2] = target: T2, Q8ND25 (Homo sapiens, UniProt Q8ND25); assay: Cysteine liganding, probe competition (Table 2B); conditions: one line per cysteine site
T2 construct: 200 μL of lysate containing 5 mg/ml proteome was treated with 2 μL of 100× compound stock; endogenous in cells
Source text: as §1

[3] = target: T3, GOLGA2 Golgin subfamily A member 2 (Homo sapiens, UniProt Q08379); assay: Cysteine liganding, probe competition
T3 construct: Cells were resuspended in cold PBS on ice and sonicated with a probe sonicator to achieve lysis; endogenous in cells
T3 sequence (Q08379 1-1002): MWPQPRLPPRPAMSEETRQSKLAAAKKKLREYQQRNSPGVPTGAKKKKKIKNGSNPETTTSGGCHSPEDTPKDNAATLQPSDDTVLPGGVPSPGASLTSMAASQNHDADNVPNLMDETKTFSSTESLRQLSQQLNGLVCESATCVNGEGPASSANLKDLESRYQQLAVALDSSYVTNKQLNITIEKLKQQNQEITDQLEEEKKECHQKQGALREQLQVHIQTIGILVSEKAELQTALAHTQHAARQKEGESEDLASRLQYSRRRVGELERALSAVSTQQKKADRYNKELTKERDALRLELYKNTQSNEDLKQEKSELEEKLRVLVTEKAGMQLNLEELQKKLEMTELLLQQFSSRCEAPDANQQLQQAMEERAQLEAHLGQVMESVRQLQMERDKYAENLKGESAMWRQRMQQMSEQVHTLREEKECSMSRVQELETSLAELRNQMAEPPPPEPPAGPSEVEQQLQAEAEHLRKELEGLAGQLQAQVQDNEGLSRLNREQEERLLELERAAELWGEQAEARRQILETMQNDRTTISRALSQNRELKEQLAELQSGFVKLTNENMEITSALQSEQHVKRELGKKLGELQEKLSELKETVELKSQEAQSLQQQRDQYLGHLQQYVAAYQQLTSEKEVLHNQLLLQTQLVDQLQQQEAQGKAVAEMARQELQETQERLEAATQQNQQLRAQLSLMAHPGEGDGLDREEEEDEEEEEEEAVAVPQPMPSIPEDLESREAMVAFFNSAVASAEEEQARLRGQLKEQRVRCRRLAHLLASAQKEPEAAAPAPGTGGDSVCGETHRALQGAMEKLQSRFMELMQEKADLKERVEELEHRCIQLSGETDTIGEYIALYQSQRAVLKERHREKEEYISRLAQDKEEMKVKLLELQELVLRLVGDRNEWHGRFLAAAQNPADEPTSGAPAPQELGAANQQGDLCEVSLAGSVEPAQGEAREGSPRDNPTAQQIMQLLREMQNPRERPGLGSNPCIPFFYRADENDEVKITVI
Outline: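 Steps: sonicate cells in cold PBS; treat 5 mg/ml lysate with compound (25° C, 1 hr); add desthiobiotin iodoacetamide probe from a 10 mM stock (25° C, 1 hr); precipitate, reduce, alkylate, digest with trypsin; capture labelled peptides on streptavidin for analysis.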

[4] = 500 uM, read-out: KB02_500 uM_percent_inhibition
[5] = 100 uM, read-out: KB05_100 uM_percent_inhibition

T2 sequence (Q8ND25 whole entry): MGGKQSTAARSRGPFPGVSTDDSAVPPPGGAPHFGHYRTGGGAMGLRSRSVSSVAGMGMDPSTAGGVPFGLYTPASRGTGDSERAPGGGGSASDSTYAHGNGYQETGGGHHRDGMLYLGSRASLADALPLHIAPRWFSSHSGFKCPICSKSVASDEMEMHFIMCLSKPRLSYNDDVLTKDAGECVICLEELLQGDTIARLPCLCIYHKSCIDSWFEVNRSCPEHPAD
T1 sequence (Q8NHG8 whole entry): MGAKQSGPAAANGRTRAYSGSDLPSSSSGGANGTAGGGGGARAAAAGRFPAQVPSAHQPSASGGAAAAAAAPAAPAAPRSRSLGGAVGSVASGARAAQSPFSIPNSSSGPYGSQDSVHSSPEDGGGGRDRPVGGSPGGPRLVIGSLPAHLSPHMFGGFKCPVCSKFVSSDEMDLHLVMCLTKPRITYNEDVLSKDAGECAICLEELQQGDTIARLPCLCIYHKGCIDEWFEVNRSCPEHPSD

Structure (SMILES): COc1ccc2c(c1)CCCN2C(=O)CCl [KB02]
- inhibition at 500 µM [1, 4]: 35%
- inhibition at 500 µM [2, 4]: 42%
- Liganded ([3]; GOLGA2 Res# 794, uniprot Q08379): YES

- inhibition at 100 µM [1, 5]: 9%
- inhibition at 100 µM [2, 5]: 9%
Structure (SMILES): C=CC(=O)N(c1ccccc1)c1ccc(Br)cc1 [KB05]

Structure (SMILES): O=C(CCl)Nc1cc(C(F)(F)F)cc(C(F)(F)F)c1 [KBO3]
- 100 Max ([3]; uniprot Q08379): 1.85
- 100 ave ([3]; uniprot Q08379): 1.85
- 500 Max ([3]; uniprot Q08379): 54.38
- 500 ave ([3]; uniprot Q08379): 54.38
